Earlier results on 2 molecules are cited in PMC4448982, “LP-925219 maximizes urinary glucose excretion in mice by inhibiting both renal SGLT1 and SGLT2” (Pharmacology Research & Perspectives, 2015).

For one data set, the system named is SGLT2. The arrangement: method as in Rieg et al. [2014]. The following applies: ref Rieg et al. [2014], cited from earlier work.
Details of data set [1]: method as in Powell et al. [2014]. As to conditions: mouse; ref Powell et al. [2014]; cited from earlier work.
On the set-up of data set [2]: method as in Powell et al. [2014]. As to conditions: human; ref Powell et al. [2014]; cited from earlier work.

Each structure is given as a SMILES string. Like-named read-outs stand apart in the source and are kept apart here.

Consider `OC[C@H]1O[C@@H](c2ccc(Cl)c(Cc3ccc(O[C@H]4CCOC4)cc3)c2)[C@H](O)[C@@H](O)[C@@H]1O` [empagliflozin], for which the “reduction of glucose reabsorption” value is reported as 100% with SGLT2 (SGLT1 KO mice) and 56% with SGLT2 (WT mice).
For `CCOc1ccc(Cc2cc([C@@H]3O[C@H](SC)[C@@H](O)[C@H](O)[C@H]3O)ccc2Cl)cc1` [sotagliflozin], the plasma protein binding in data set [1] and in data set [2] was above 90% each time.
